Results: article PMC6944674, “Comparison of the Hepatotoxic Potential of Two Treatments for Autosomal-Dominant Polycystic Kidney DiseaseUsing Quantitative Systems Toxicology Modeling” (Pharmaceutical Research, 2020)

How the values were obtained:
[1] = cited from earlier work
[2] = molecular target: T1, MRP3 and MRP4 (basolateral transport) (Homo sapiens, UniProt O15439); test: Basolateral inhibition constant: lowest IC50 of the MRP3 and MRP4 vesicular assays; format: biochemical; conditions: membrane vesicles (vesicular transport assay), lowest IC50 of the experimentally derived MRP3 and MRP4 IC50 values
T1 sequence (O15439 1-1325): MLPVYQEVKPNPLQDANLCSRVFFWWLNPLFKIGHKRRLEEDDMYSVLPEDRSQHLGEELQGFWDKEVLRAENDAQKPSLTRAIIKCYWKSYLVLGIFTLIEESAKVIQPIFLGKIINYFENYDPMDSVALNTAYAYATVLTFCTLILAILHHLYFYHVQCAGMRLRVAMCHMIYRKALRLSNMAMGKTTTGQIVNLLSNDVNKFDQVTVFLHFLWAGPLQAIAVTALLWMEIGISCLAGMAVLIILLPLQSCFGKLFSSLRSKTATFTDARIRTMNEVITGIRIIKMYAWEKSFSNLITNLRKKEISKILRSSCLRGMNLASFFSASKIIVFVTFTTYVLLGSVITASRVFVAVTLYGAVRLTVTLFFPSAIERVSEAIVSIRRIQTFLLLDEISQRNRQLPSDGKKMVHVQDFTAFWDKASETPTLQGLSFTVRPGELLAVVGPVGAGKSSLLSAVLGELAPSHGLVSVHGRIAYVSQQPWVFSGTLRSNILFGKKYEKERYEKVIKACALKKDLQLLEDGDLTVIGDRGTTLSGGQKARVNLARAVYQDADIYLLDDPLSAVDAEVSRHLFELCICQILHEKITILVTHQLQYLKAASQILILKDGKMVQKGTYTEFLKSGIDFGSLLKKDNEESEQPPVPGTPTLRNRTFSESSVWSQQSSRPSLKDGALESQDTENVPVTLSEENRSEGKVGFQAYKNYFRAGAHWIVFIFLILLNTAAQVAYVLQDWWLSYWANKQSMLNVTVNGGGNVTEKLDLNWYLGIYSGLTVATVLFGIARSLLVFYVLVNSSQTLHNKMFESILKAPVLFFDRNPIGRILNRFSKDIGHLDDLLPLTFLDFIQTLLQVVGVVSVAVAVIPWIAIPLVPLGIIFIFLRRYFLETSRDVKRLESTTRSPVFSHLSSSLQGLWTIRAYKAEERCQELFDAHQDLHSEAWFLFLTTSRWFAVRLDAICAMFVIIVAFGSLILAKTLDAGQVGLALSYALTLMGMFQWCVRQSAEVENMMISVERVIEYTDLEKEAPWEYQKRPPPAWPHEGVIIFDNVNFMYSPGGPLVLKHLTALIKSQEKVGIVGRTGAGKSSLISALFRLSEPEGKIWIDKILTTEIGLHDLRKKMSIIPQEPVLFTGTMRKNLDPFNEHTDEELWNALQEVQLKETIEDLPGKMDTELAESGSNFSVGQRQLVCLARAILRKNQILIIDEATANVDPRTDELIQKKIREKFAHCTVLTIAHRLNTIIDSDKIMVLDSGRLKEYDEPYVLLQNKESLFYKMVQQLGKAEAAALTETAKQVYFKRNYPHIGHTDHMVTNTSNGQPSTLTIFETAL
Method: The functional impact of lixivaptan, its three metabolites and tolvaptan on the human ABC (efflux) transporters BSEP and MRP3 and MRP4 was assessed for this project using in vitro vesicular transport inhibition assays. The inhibition of the human SLC (uptake) transporter NTCP was assessed using CHO cells stably expressing human NTCP. The concentration ranges used for the five test articles was determined based on the solubility of each compound in the assay solution. All transporter inhibition assays were conducted in triplicate by Solvo Biotechnology (Szeged, Hungary). For the simulation of bile acid transporter inhibition by lixivaptan in […], parameter values were selected for BSEP canalicular transport, basolateral transport (encompassing both MRP3 and MRP4), and NTCP transport. The parameter values for each include the inhibition constant, defined as the IC50 or Ki value, and the inhibition type, defined as competitive, non-competitive, or mixed inhibition.

HepG2 cells = test: ROS formation by DHE fluorescence (high-content imaging); format: cell-based; conditions: 24 hour incubation
Method: To assess the potential for lixivaptan and its metabolites to induce oxidative stress, assays to measure formation of reactive oxygen species (ROS) were conducted by Cyprotex and overseen by the authors. HepG2 cells were cultured in triplicate in the presence of each test article for 1 or 24 hours; the range of concentrations used for each test article is listed in Table B1. ROS formation was assayed by DHE fluorescence. Two independent studies in triplicate were conducted on HepG2 cells.

[3] = End Stage Renal Disease patients, ref personal communication, proprietary data not shown

For Cc1ccc(F)cc1C(=O)Nc1ccc(C(=O)N2Cc3cccn3Cc3ccccc32)c(Cl)c1 [Lixivaptan, lixivaptan], the “time to steady-state concentration” value ([1]; 100 mg BID, clinical, ref proprietary data not shown) is listed as 6 days, the “recovery in single-dose mass balance study” value ([1]; 100 mg single dose, after 7 days, ref clinical study 0892A1-109-US) is listed as 84% and the “decrease of exposure (AUC) in renal failure patients vs subjects with normal renal function” value [1, 3] is listed as “approximately 30%”. The “decrease of peak concentration (Cmax) in renal failure patients vs subjects with normal renal function” value [1, 3] was “approximately 30%”, the Cmax ([1]; after 7 days of 100 mg BID, ref clinical study CK-LX1403 (data not shown)) was 2000 nM and the IC50 [2] was 70 µM. For the same molecule, the “induction of oxidative stress in HepG2 cells” value (HepG2 cells) was “evidence for induction of oxidative stress”.
